# Laboratory results published in PubChem BioAssay (NCI).
#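 Where inhibition never reached the appropriate level, the endpoint shown equals the highest concentration tested. Otherwise, values were interpolated linearly from a five-concentration, 48-hour dose response in 96-well plates. Abbreviation: GI50, concentration required for 50% inhibition of growth. TGI: total growth inhibition.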
# Key:
# Test in all cases: NCI anticancer screen, dose series, 48 h
# [1] = test system: HL-60(TB) leukemia
# [2] = test system: UACC-62 melanoma
# [3] = test system: DU-145 prostate
# [4] = test system: PC-3 prostate
# [5] = test system: SW-620 colon
# [6] = test system: K-562 leukemia
# [7] = test system: NCI-H522 lung
# [8] = test system: HT29 colon
# [9] = test system: RXF 393 renal
# [10] = test system: HCT-15 colon
# [11] = test system: MCF7 breast
# [12] = test system: HCT-116 colon
# [13] = test system: A549 NSCLC
# [14] = test system: T-47D breast
# [15] = test system: HOP-62 NSCLC
# [16] = test system: ACHN renal
# [17] = test system: U251 CNS
# [18] = test system: OVCAR-8 ovarian
# [19] = test system: UO-31 renal
# [20] = test system: SNB-75 CNS
# [21] = test system: HCC-2998 colon
# [22] = test system: A498 renal
# [23] = test system: SF-539 CNS
# [24] = test system: EKVX NSCLC
# [25] = test system: OVCAR-5 ovarian
# [26] = test system: OVCAR-3 ovarian
# [27] = test system: HS 578T breast
# [28] = test system: SR leukemia
# [29] = test system: RPMI-8226 leukemia
# [30] = test system: CCRF-CEM leukemia
# [31] = test system: SNB-19 CNS
# [32] = test system: UACC-257 melanoma
# [33] = test system: HOP-92 NSCLC
# [34] = test system: 786-0 renal
# [35] = test system: CAKI-1 renal
# [36] = test system: SK-OV-3 ovarian
# [37] = test system: BT-549 breast
# [38] = test system: NCI-H460 lung
# [39] = test system: MOLT-4 leukemia
# [40] = test system: SF-268 CNS
# [41] = test system: SK-MEL-5 melanoma
# [42] = test system: SF-295 CNS
# [43] = test system: NCI-H226 lung
# [44] = test system: LOX IMVI melanoma
# [45] = test system: MALME-3M melanoma
# [46] = test system: COLO 205 colon
# [47] = test system: NCI-H23 lung
# [48] = test system: MDA-MB-468 breast
# [49] = test system: IGROV1 ovarian
# [50] = test system: KM12 colon
# [51] = test system: TK-10 renal
# [52] = test system: MDA-MB-435
# [53] = test system: OVCAR-4 ovarian
# [54] = test system: SK-MEL-28 melanoma
# [55] = test system: SN12C renal
# [56] = test system: MDA-MB-231 breast
# [57] = test system: M14 melanoma
smiles,measurement,setting,value
CC1(C)CC[C@]2(C(=O)Nc3ccc(Br)cc3)CC[C@]3(C)C(=CCC4[C@@]5(C)C[C@@H](O)[C@H](O)[C@@](C)(CO)C5CC[C@]43C)C2C1 (some centres undefined),GI50,[1],18.2 µM
same,TGI,[1],50.7 µM
same,GI50,[2],12 µM
same,TGI,[2],25.2 µM
same,GI50,[3],26.7 µM
same,TGI,[3],81 µM
same,GI50,[4],14.5 µM
same,TGI,[4],40.8 µM
same,GI50,[5],25.7 µM
same,TGI,[5],> 100 µM
same,GI50,[6],23.1 µM
same,TGI,[6],> 100 µM
same,GI50,[7],17.1 µM
same,TGI,[7],34.6 µM
same,GI50,[8],12.9 µM
same,TGI,[8],26.7 µM
same,GI50,[9],12.6 µM
same,TGI,[9],25.6 µM
same,GI50,[10],14.6 µM
same,TGI,[10],29 µM
same,GI50,[11],14.9 µM
same,TGI,[11],34.9 µM
same,GI50,[12],13.5 µM
same,TGI,[12],26.9 µM
same,GI50,[13],30.5 µM
same,TGI,[13],> 100 µM
same,GI50,[14],13.4 µM
same,TGI,[14],30.4 µM
same,GI50,[15],15 µM
same,TGI,[15],31.8 µM
same,GI50,[16],14.6 µM
same,TGI,[16],28.2 µM
same,GI50,[17],16.6 µM
same,TGI,[17],33.5 µM
same,GI50,[18],24 µM
same,TGI,[18],73.7 µM
same,GI50,[19],13.5 µM
same,TGI,[19],33.4 µM
same,GI50,[20],14.5 µM
same,TGI,[20],60.7 µM
same,GI50,[21],16.2 µM
same,TGI,[21],31 µM
same,GI50,[22],19 µM
same,TGI,[22],34.6 µM
same,GI50,[23],15.9 µM
same,TGI,[23],30 µM
same,GI50,[24],16.6 µM
same,TGI,[24],41.6 µM
same,GI50,[25],13.2 µM
same,TGI,[25],27.2 µM
same,GI50,[26],17.1 µM
same,TGI,[26],34 µM
same,GI50,[27],20.1 µM
same,TGI,[27],63.5 µM
same,GI50,[28],19.1 µM
same,TGI,[28],> 100 µM
same,GI50,[29],19.5 µM
same,TGI,[29],72.3 µM
same,GI50,[30],23.2 µM
same,TGI,[30],75.9 µM
same,GI50,[31],25.8 µM
same,TGI,[31],> 100 µM
same,GI50,[32],20.2 µM
same,TGI,[32],56.1 µM
same,GI50,[33],14.5 µM
same,TGI,[33],31.6 µM
same,GI50,[34],16.7 µM
same,TGI,[34],31.5 µM
same,GI50,[35],12.6 µM
same,TGI,[35],40.8 µM
same,GI50,[36],16.5 µM
same,TGI,[36],38.6 µM
same,GI50,[37],16.4 µM
same,TGI,[37],33.2 µM
same,GI50,[38],17.5 µM
same,TGI,[38],38.3 µM
same,GI50,[39],13.2 µM
same,TGI,[39],50 µM
same,GI50,[40],20.9 µM
same,TGI,[40],71.9 µM
same,GI50,[41],15.7 µM
same,TGI,[41],29.1 µM
same,GI50,[42],15.8 µM
same,TGI,[42],30.6 µM
same,GI50,[43],16.8 µM
same,TGI,[43],34.2 µM
same,GI50,[44],17.8 µM
same,TGI,[44],33 µM
same,GI50,[45],16.1 µM
same,TGI,[45],30.4 µM
same,GI50,[46],15.2 µM
same,TGI,[46],32.8 µM
same,GI50,[47],17.1 µM
same,TGI,[47],33.6 µM
same,GI50,[48],15 µM
same,TGI,[48],29.4 µM
same,GI50,[49],17.1 µM
same,TGI,[49],37.7 µM
same,GI50,[50],18.1 µM
same,TGI,[50],38.1 µM
same,GI50,[51],19.8 µM
same,TGI,[51],49.9 µM
same,GI50,[52],15.9 µM
same,TGI,[52],31.4 µM
same,GI50,[53],15.1 µM
same,TGI,[53],35.8 µM
same,GI50,[54],16.1 µM
same,TGI,[54],35.8 µM
same,GI50,[55],16.6 µM
same,TGI,[55],31.8 µM
same,GI50,[56],15.3 µM
same,TGI,[56],30 µM
same,GI50,[57],17.4 µM
same,TGI,[57],40.8 µM
